Reference: article PMC7406541, “Vectorial transport of the arginine derivatives asymmetric dimethylarginine (ADMA) and L-homoarginine by OATP4C1 and P-glycoprotein studied in double-transfected MDCK cells” (Amino Acids, 2020)

Tests used:
MDCK-VC cells = experiment: Transcellular basal to apical transport across MDCK-VC control cell monolayers; assay type: in vitro ADME; conditions: 1 µM, 1 h
Procedure: Transcellular transport in MDCK-OATP4C1-P-gp double-transfectants and respective MDCK-OATP4C1 and MDCK-P-gp single-transfectants as well as in the MDCK-VC control cell line was analyzed as previously described (Taghikhani et al. [2017]). Cells were cultured in Transwell membrane inserts (14 mm diameter, 0.4 µm pore size; Greiner Bio-One, Frickenhausen, Germany) in an initial density of 5 × 10^5 cells/well. Cells were cultivated at 37 °C for 48 h before inducing them by replacing the medium with fresh medium containing 10 mM of sodium butyrate. After 24 h of further incubation, cells were used for transcellular transport studies.
To study the transcellular transport, cells were washed with pre-warmed (37 °C) uptake buffer applied to both the basolateral and apical compartment. […] After incubating the cells for stated time points, the amount of radioactivity on the apical compartment was measured by liquid scintillation counting.
Concentration dependency of transcellular transport of ADMA and L-homoarginine was studied by applying the respective compound in concentrations of 1, 20, 50 and 100 µM on the basolateral compartment of MDCK transfectants. […] Cells were lysed and the cellular protein content was quantified as described. 400 µl (or 80 µl for time-dependency analysis) of the applied donor solutions were also analyzed by scintillation counting as reference. […]

[1] = set-up: method as in Kielstein et al. [2009]; conditions: ref Kielstein et al. [2009]; cited from earlier work
human P-gp = human P-gp (Homo sapiens, UniProt P08183); experiment: Transcellular basal to apical (vectorial) transport across MDCK-P-gp cell monolayers; conditions: for Average ratio of vectorial transport (relative to MDCK-VC cells): MDCK-P-gp, 1 h incubation
human OATP4C1 = experiment: Transcellular basal to apical (vectorial) transport across MDCK-OATP4C1 cell monolayers; conditions: 1 h incubation
[2] = tested on: human OATP4C1 and human P-gp; experiment: Transcellular basal to apical (vectorial) transport across double-transfected MDCK-OATP4C1-P-gp cell monolayers; conditions: for Time-dependent transcellular transport in MDCK-OATP4C1-P-gp cells compared to the other tested cell lines: all time points 1, 2, 3 and 4 h; for Transport ratio MDCK-OATP4C1-P-gp/MDCK-VC: 50 µM, basolateral to apical; for Average ratio of vectorial transport (relative to MDCK-VC cells): MDCK-OATP4C1-P-gp, 1 h incubation
CAT1 = tested on: CAT1; set-up: method as in Chafai et al. [2017]; conditions: ref Chafai et al. [2017]; read-out: Km value for CAT1-mediated uptake; cited from earlier work
OATP4C1 = tested on: OATP4C1; set-up: method as in Taghikhani et al. [2019]; conditions: ref Taghikhani et al. [2019]; read-out: Km value as substrate of OATP4C1; cited from earlier work

Sequence of human P-gp (P08183 whole entry): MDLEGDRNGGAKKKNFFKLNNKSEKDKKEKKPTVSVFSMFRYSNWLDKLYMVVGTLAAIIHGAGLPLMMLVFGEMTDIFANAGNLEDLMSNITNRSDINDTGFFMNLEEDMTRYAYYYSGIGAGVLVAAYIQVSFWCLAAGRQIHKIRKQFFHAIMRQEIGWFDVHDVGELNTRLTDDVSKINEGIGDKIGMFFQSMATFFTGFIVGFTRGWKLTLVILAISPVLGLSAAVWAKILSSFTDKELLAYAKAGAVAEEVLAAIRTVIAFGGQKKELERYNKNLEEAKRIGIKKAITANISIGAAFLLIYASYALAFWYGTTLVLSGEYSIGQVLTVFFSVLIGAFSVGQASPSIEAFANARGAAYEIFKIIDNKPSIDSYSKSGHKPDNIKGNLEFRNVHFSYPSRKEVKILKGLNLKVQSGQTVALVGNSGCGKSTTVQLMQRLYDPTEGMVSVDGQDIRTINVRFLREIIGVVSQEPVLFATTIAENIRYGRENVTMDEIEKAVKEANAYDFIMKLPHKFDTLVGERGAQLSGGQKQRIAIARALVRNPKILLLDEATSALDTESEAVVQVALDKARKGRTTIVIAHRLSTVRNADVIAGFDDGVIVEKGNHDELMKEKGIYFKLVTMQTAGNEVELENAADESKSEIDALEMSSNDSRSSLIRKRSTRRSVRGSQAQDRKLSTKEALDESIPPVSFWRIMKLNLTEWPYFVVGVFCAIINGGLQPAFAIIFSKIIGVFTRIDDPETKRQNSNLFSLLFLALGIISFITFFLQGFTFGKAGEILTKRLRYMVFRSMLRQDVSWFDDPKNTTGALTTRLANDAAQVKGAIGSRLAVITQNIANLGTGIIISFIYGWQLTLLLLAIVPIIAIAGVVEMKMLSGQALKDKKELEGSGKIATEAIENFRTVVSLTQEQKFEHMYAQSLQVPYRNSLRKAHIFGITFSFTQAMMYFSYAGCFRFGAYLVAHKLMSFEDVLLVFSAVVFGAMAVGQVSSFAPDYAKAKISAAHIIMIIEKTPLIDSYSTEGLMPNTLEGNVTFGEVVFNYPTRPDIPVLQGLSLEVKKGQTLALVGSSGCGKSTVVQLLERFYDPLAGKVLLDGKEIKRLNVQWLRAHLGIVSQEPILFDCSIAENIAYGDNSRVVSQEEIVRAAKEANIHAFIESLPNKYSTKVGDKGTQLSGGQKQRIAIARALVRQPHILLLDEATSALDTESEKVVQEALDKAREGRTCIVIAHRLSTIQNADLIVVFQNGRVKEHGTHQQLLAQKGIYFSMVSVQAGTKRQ

Row | Compound | Average ratio of vectorial transport (relative to MDCK-VC cells) (human P-gp; 1 µM basal) | Average ratio of vectorial transport (relative to MDCK-VC cells) (human P-gp; 20 µM basal) | Average ratio of vectorial transport (relative to MDCK-VC cells) (human P-gp; 50 µM basal) | Average ratio of vectorial transport (relative to MDCK-VC cells) (human P-gp; 100 µM basal) | Average ratio of vectorial transport (relative to MDCK-VC cells) (human OATP4C1; 1 µM basal) | Average ratio of vectorial transport (relative to MDCK-VC cells) (human OATP4C1; 20 µM basal) | Average ratio of vectorial transport (relative to MDCK-VC cells) (human OATP4C1; 50 µM basal) | Average ratio of vectorial transport (relative to MDCK-VC cells) (human OATP4C1; 100 µM basal) | Time-dependent transcellular transport in MDCK-OATP4C1-P-gp cells compared to the other tested cell lines ([2]; 1 µM) | Transport ratio MDCK-OATP4C1-P-gp/MDCK-VC [2] | Average ratio of vectorial transport (relative to MDCK-VC cells) ([2]; 1 µM basal) | Average ratio of vectorial transport (relative to MDCK-VC cells) ([2]; 20 µM basal) | Average ratio of vectorial transport (relative to MDCK-VC cells) ([2]; 50 µM basal) | Average ratio of vectorial transport (relative to MDCK-VC cells) ([2]; 100 µM basal) | also measured
1 | CN(C)C(N)=NCCC[C@H](N)C(=O)O [ADMA, asymmetric dimethylarginine] | 1.10 | 1.19 | 1.20 | 1.30 | 1.17 | 1.19 | 1.14 | 1.20 | significantly higher | 2.0 fold | 1.92 | 1.87 | 2.00 | 1.83 | Transcellular transport rate (MDCK-VC cells): 4.8 ± 0.4 pmol × mg protein^−1 × min^−1; Share excreted unchanged into urine [1]: 20%; Share taken up into proximal tubule cells that is metabolized (e.g. by DDAH1) [1]: ~80%; Transport ratio MDCK-OATP4C1-P-gp vs MDCK-VC ([2]; 1 µM, 1 h): 1.92 fold; Transcellular transport rate ([2]; MDCK-OATP4C1-P-gp cells, 1 µM, basal to apical, 1 h): 9.2 ± 1.2 pmol × mg protein^−1 × min^−1
2 | NC(N)=NCCCC[C@H](N)C(=O)O [L-homoarginine] | 1.11 | 1.61 | 1.45 | 1.43 | 1.33 | 1.92 | 2.09 | 2.31 | significantly higher | 3.4 fold | 3.44 | 3.94 | 3.41 | 6.65 | Km (CAT1): 175 µM; Km (OATP4C1): 49.9 µM
3 | C[C@H]1O[C@@H](O[C@H]2[C@@H](O)C[C@H](O[C@H]3[C@@H](O)C[C@H](O[C@H]4CC[C@@]5(C)[C@H](CC[C@@H]6[C@@H]5C[C@@H](O)[C@]5(C)[C@@H](C7=CC(=O)OC7)CC[C@]65O)C4)O[C@@H]3C)O[C@@H]2C)C[C@H](O)[C@@H]1O [digoxin, reference compound] | – | – | – | – | – | – | – | – | – | – | – | – | – | – | Transcellular transport in MDCK-P-gp in comparison to MDCK-VC (human P-gp; 5 µM, incubation time 1 h): 1.7 fold
